The subject of data set [1] is H9 cells. The data set is described as follows: Toxicity in HIV-1 infected H9 cells: viable cell count by trypan blue exclusion. It is filed as cell-based, human. The protocol:
(§1) Media was changed every other day. The effect of these compounds on virus production was determined by measuring the reverse transcriptase (RT) activity in samples of the cell culture supernatants. […] Negative controls consisted of no additions or 0.1ethanol. The results of duplicate assays were averaged. Panel B -Concentration-dependent effects of 13-oxamyristic acid on HIV-1 replication as measured by RT activity (percent of untreated control) and the presence of p24 antigen (ng/ml determined by ELISA). Error bars indicate the S.E.M. of assays done in triplicate. Panel C - The effect of 13-oxamyristic acid on syncytia formation using an arbitrary scale described under Materials and Methods, Example 16, below. Panel D - Toxicity of 13-oxamyristic acid determined by viable cell count (trypan blue exclusion), as well as by [^3 H]thymidine and [^3 H]leucine labeling (see under Materials and Methods, Example 16, below). The incorporation of these radiolabeled compounds was determined in the total cell population contained in a well after 10 days of treatment with the analog. Duplicate assays were performed and the results averaged.
Toxicity Studies. These analyses were conducted for both assay systems. Cell survival was determined by trypan-blue exclusion. The number of unstained cells/mL in the treated cultures was divided by the number of unstained cells/mL in the untreated control cultures and expressed as percent control. Protein synthesis was measured at the end of the treatment periods by metabolic labeling for 4 hrs with L-[4,5^3 H(N)]-leucine (2 μCi/mL media, specific activity =140 Ci/mmol). All cells contained in a given well of a 24 well plate were recovered by scraping, the protein precipitated by TCA (final concentration =10%) and the solution subsequently incubated at 100° C. for 5 min prior to passage over glass fiber filters (Whatman). In the case of the H-9 assay, treated or untreated cells were pulsed labeled at the conclusion of the 10 day incubation. […] DNA synthesis was assessed on day 10 of the H9 assay. […]

Data set [2] relates to HIV-1. The data set is described as follows: Syncytia assay in HIV-1 infected H9 cells. It is filed as cell-based, HIV-1 strain HXB2gptX (in human H9 cells). The note with it: H9 cells. On the procedure: as §1
Assay for HIV-1 Replication. The human T-lymphoid cell line, H9, was provided by R. D. Gallo (NIH) and maintained in RPMI-1640 medium supplemented with 10% fetal bovine serum, 100 IU/mL penicillin, 100 μg/mL streptomycin an 2 mM L-glutamine. […] The titer of the virus stock was determined by serial dilution using syncytia formation and reverse transcriptase activity (see below) as a measure of infectivity in H9 cells. […]
Syncytia Assay. The number of syncytia in each well was determined by microscopic examination on days 4-6 (infected, untreated control cultures), 8 and 10 (analog or decanoate treated cultures). The average number of multi-nucleated giant cells counted per 10 low-power fields (LPF =40 times magnification) was assigned to an arbitrary syncytia scale: 0=<1/LPF, 1+=1-4/LPF, 2+=5-7/LPF, 3+= 8-10/LPF, 4+=>10/LPF. By this criteria uninfected, control cells had zero synctia, and infected, untreated H9 cells were consistently scored as 4+.

In data set [3] the test system is HIV-1. The experiment in a line: HIV-1 replication in H9 cells, reverse transcriptase activity of culture supernatants (acute infection). The note with it: for relative efficacy on HIV-1 production: 1-100 μM, ranking among the four analogs. The format is cell-based, HIV-1 strain HXB2gptX (in human H9 cells). On the procedure: as §1
Assay for HIV-1 Replication. The human T-lymphoid cell line, H9, was provided by R. D. Gallo (NIH) and maintained in RPMI-1640 medium supplemented with 10% fetal bovine serum, 100 IU/mL penicillin, 100 μg/mL streptomycin an 2 mM L-glutamine. HIV-1 strain HXB2gptX [Fisher et al., Science 233, 655-659 (1986)] was obtained from cultures of chronically infected H9 cells [Popovic et al., Science 224, 497-500 (1984)]< filtered through 0.2 μm Millipore filters and stored at -90° C. The titer of the virus stock was determined by serial dilution using syncytia formation and reverse transcriptase activity (see below) as a measure of infectivity in H9 cells.
Cell-free HIV-1, at a multiplicity of infection (m.o.i.) equal to 0.01-0.001, was added to 10^7 H9 cells which had been pretreated with 2 μg/ml Polybrene® (hexadimethrene bromide, Sigma). Following a 30 min incubation at 37° C. to absorb the virus, 4 × 10^5 of virus treated cells in 1 mL of fresh medium (plus 10% fetal calf serum, pencillin and streptomycin) were added to each well of a 24 well tissue culture plate (Falcon), and mixed with an equal volume of serum-free RPMI-1640 medium containing analog. Medium containing 5% serum, antibiotics ± analog was replaced every other day. Each of the heteroatom substituted analogs was prepared as a 100 mM stock solution in 100% ethanol and stored at -90° C. prior to dilution in the serum-free RPMI-1640 medium. The maximum final ethanol concentration reached after dilution of the different analogs in media was 0.1%. Therefore, uninfected and infected H9 cells, treated with or without 0.1% ethanol, were used as controls for each test. Ethanol alone had no demonstrable effects.
Except for the preliminary screening of the various (coded) analogs which was done twice, all other assays were performed at least three times. Samples were tested in duplicate each time the assay was repeated.
Virus Assays. Virus was quantitated using supernatant solutions of cells harvested on day 8 (m.o.i.=0.01) or day 10 (m.o.i.=0.001) of treatment. Virions were concentrated 10 fold by precipitation of culture supernatants with a solution of polyethylene glycol (30% in 150 mM NaCl, 0.1 mM phenylmethylsulfonylfluoride). The precipitates were solubilized and virus-associated reverse transcriptase (RT) activity measured by [^32 P]TTP incorporation using a poly(rA)-oligo(dT) template [Poiesz et al., Proc. Natl. Acad. Sci. USA 77, 7415-7419 (1980)]. Cell supernatants were also tested for virus-specific antigen using a p24 ELISA from Dupont (Wilmington, DE). This assay can detect as little as 0.03 ng of antigen/mL (antigen=p24, the major structural nucleocapsid protein of HIV-1, as well as its precursor, Pr55^gag).
HIV-1 Replication in H9 Cells is Inhibited by Treatment with Heteroatom-Containing Analogs of Myristate. […]

In data set [4] the test system is H9 cells. The data set is described as follows: [3H]leucine and [3H]thymidine labeling (protein and DNA synthesis) in HIV-1 infected H9 cells. The format is cell-based, human. The note with it: day 10. The protocol: as §1, with “Panel C - The effect of 13-oxamyristic acid on syncytia formation using an arbitrary scale described under Materials and Methods, Example 16, below.” left out, “Duplicate assays were performed and the results averaged.” left out
Toxicity Studies. […] Cell survival was determined by trypan-blue exclusion. The number of unstained cells/mL in the treated cultures was divided by the number of unstained cells/mL in the untreated control cultures and expressed as percent control. Protein synthesis was measured at the end of the treatment periods by metabolic labeling for 4 hrs with L-[4,5^3 H(N)]-leucine (2 μCi/mL media, specific activity =140 Ci/mmol). […]

Setting [5] is: Human immunodeficiency virus 1, H9, 240 h, read-out: reverse transcriptase (RT) activity.

The source of these data is patent US5073571A, “Method of inhibiting virus” (priority 1989, dated 1991).

On to `COCCCCCCCCCCCC(=O)O` [13-oxamyristate, 12-(Methoxy)dodecanoic acid], for which, in the data set with H9 cells [1] (20 to 40 μM, 10 day treatment), the “viable cell count in HIV-1 infected H9 cultures relative to untreated controls” value is “equivalent to that of untreated controls”. Also, the “viable cell count in HIV-1 infected H9 cultures” value in the data set on H9 cells [1] (10 day treatment, trypan blue exclusion) is listed as “an increase in viable cell count was observed”. The “direct toxicity to the cells” value with H9 cells [1] (HIV-1 infected H9 cells, suggested by viable cell number) was “not directly toxic to the cells”. Besides, in the data set with HIV-1 [2] (40-80 μM vs 5 μM AZT), the “reduction in syncytia compared with AZT” value is “comparable to that obtained with 5 μM AZT”. Moreover, the “syncytia reduction compared with RT and p24 assays” value in the data set with HIV-1 [2] (FIG. 1C) is “paralleled the results of the reverse transcriptase and p24 ELISA assays”. In the data set on HIV-1 [3] (0.1 μM to 100 μM, H9 cells), the “dose dependence of reduction in reverse transcriptase activity” value is on record as “dose dependent reduction in reverse transcriptase activity”. The “effect on reverse transcriptase activity” value in the data set with HIV-1 [3] (1-10 μM, 10 day incubation, HIV-1 infected H9 cells) was “More pronounced effects”. The “relative efficacy on HIV-1 production” value in the data set on HIV-1 [3] (H9 cells) was “greatest effects”. For the same compound, in the data set on HIV-1 [3] (H9 cells, listed as 13-oxamyristic acid), the “relative efficacy on HIV-1 production” value is “most effective”. The “reduction in virus replication (reverse transcriptase)” value in the data set on HIV-1 [3] (20-40 μM range, H9 cells) is recorded as “greater than 90%”. Besides, in the data set with HIV-1 [3] (setting [5]), the activity at 10 µM turned out to be 20% and the activity at 100 µM was < 10%. Further, in the data set on H9 cells [4], the “[3H]leucine labeling” value was “correlated with the cell survival data” and the “[3H]thymidine labeling” value is recorded as “correlated with the cell survival data”.
